Reference: patent US7763658B2, “Treatment for cancers” (Synta Pharmaceuticals Corp., priority 2003, dated 2010)
Entries after “also recorded” stand apart in the source; their conditions may differ.

How the values were obtained:
39SK normal fibroblast = test: In vitro cytotoxicity, MTS assay, 39SK; assay type: cell-based; conditions: Human normal fibroblast, 72 hours
Description: (§1) All experiments were performed on exponentially growing cell culture.

MES-SA/DX5 = test: Tumor cell growth inhibition, MTS assay, MES-SA/DX5; assay type: cell-based, human; conditions: protocol of Example 15, Table 2
Description: (§2) The in vitro activity of the compounds was assessed in a selected set of human cancer cell lines.
(§3) MES-SA, a model of uterine sarcoma, is sensitive to a number of chemotherapeutic agents, including Doxorubicin, Dactinomycin, Mitomycin C, paclitaxel and Bleomycin, but resistant to Vinblastine and Cisplatin. MES-SA/DX5 was established in the presence of increasing concentrations of Doxorubicin. […] Both MES-SA and MES-SA/Dx5 were purchased from ATCC (ATCC CRL-1976 and ATCC CRL-1977, respectively).
(§4) All experiments were performed on exponentially growing cell culture. Cell densities were 2.5×10^4 cells/ml in all experiment except special.

[1] = test system: multi-drug resistant human uterine sarcoma MES-SA/DX5 tumors; test: MES-SA/DX5 tumors in nude mice; assay type: in vivo; conditions: 15 mg/kg intravenously, 3 times a week for 3 weeks
Description: A supplemented media was prepared from 50% DMEM/Dulbecco Modified Eagle Medium (High Glucose), 50% RPMI 1640, 10% FBS/Fetal Bovine Serum (Hybridoma Tested; Sterile Filtered), 1% L-Glutamine, 1% Penicillin-Streptomycin, 1% MEM Sodium Pyruvate and 1% MEM Non-Essential Amino Acids. FBS was obtained from Sigma Chemical Co. and other ingredients were obtained from Invitrogen Life Technologies, USA). The supplemental media was warmed to 37° C. and 50 ml of media was added to a 175 cm^2 tissue culture flask.
The cells used in the assay were multi-drug resistant MES-SA/DX-5 Human Uterine Sarcoma cells from the American Type Culture Collection. 1 vial of MES-SA/DX-5 cells from the liquid nitrogen frozen cell stock was removed. The frozen vial of cells was immediately placed into a 37° C. water bath and gently swirled until thawed. The freeze-vial was wiped with 70% ethanol and cells were immediately pipetted into the 175 cm^2 tissue culture flask containing supplemented media. […]
The flask was washed with 10 ml of sterile room temperature phosphate buffered saline (PBS). […] The supernatant was aspirated and the cell pellet was resuspended in 10 ml of supplemented media and the cells were counted. […]
The above procedure for trypsinizing and centrifuging the cells were followed. The supernatant was aspirated and the cell pellet was resuspended in 10 ml of sterile PBS and the cells were counted. […]

HL-60 = test: Tumor cell growth inhibition, MTS assay, HL-60; assay type: cell-based; conditions: Homo sapiens, 72 hours incubation
Description: (§5) The in vitro activity of the compounds was assessed in a selected set of human cancer cell lines. Three pairs of tumor cell lines (non-resistant/resistant) were used to identify novel potent antitumor compounds which are capable of overcoming multi-drug resistance.
(§6) HL-60, a model of myeloid leukemia, was obtained from ATCC (ATCC CCL-240); and HL60/TX1000 was isolated in vitro by subculturing HL-60 in progressively higher concentration of paclitaxel. HL-60/TX1000 cells over-express mdr-1 mRNA and p-glycoprotein (PCP), as determined by western blot and immunofluorescence labeling with antiPGP antibodies. The cells are cross-resistant to paclitaxel, Vincristine, Adriamycin, Etoposide and Doxorubicin.
as §4

Bowes = test: Tumor cell growth inhibition, MTS assay, Bowes; assay type: cell-based; conditions: Homo sapiens, 72 hours incubation
Description: as §5
(§7) Bowes is a melanoma cell line; and Bowes/OV2 is a Vincristine resistant Bowes melanoma cell line.
as §4

CEM (T-cell leukemia) = test: cells; assay type: cell-based; conditions: Homo sapiens, 72 h, read-out: In vitro Cytotoxicity IC50, CEM
Description: as §1

[2] = test system: MDR cell lines (MES-SA/DX5, HL-60/TX1000, Bowes/OV2); test: Tumor cell growth inhibition, summary over MDR cell lines; assay type: cell-based, human; conditions: for IC50: Homo sapiens, read-out: IC50 against the MDR cell lines
Description: as §5, §6, §3, §7, §4

MES-SA = test: Tumor cell growth inhibition, MTS assay, MES-SA; assay type: cell-based; conditions: Homo sapiens, 72 hours incubation
Description: as §2, §3, §4

[3] = test system: normal cancer cell lines (MES-SA, HL-60, Bowes); test: Tumor cell growth inhibition, summary over normal cancer cell lines; assay type: cell-based; conditions: Homo sapiens, read-out: IC50 against normal cancer cell lines
Description: as §5, §6, §3, §7, §4

SMILES | IC50 (HL-60) [µM] | IC50 (Bowes) [µM] | IC50 (CEM (T-cell leukemia)) [nM] | IC50 compared with Compound (1), same multi-drug resistant cell lines [2] | IC50 [2] [nM] | IC50 (MES-SA) [µM] | further results
CN(NC(=O)CC(=O)NN(C)C(=S)c1ccccc1)C(=S)c1ccccc1 [Compound (1)] | – | – | – | – | – | – | IC50 (39SK normal fibroblast): > 10000 nM
CC(C(=O)NN1Cc2ccccc2C1=S)C(=O)NN1Cc2ccccc2C1=S [Compound (13)] | – | – | – | – | – | – | IC50 (MES-SA/DX5): 0.05 µM
CCN(NC(=O)C(C)C(=O)NN(CC)C(=S)c1ccccc1)C(=S)c1ccccc1 [Compound (16)] | – | – | – | – | – | – | toxicity such as body weight suppression and behavior changes [1]: without any obvious toxicity; tumor growth / tumor size of MES-SA/DX5 compared with vehicle ([1]; FIG. 2): significantly reduced; also recorded: significantly inhibits the tumor growth; IC50 (MES-SA/DX5; Homo sapiens, MES-SA/Dx5): 0.05 µM
CC(=O)O[C@H]1C(=O)[C@@]2(C)[C@H]([C@H](OC(=O)c3ccccc3)[C@]3(O)C[C@H](OC(=O)[C@H](O)[C@@H](NC(=O)c4ccccc4)c4ccccc4)C(C)=C1C3(C)C)[C@]1(OC(C)=O)CO[C@@H]1C[C@@H]2O [Paclitaxel] | 0.002 | 0.005 | 10 | two to three orders of magnitude larger | 5000 | 0.005 | IC50 [3]: 2 to 5 nM
CC[C@]1(O)C[C@H]2CN(CCc3c([nH]c4ccccc34)[C@@](C(=O)OC)(c3cc4c(cc3OC)N(C=O)[C@H]3[C@@](O)(C(=O)OC)[C@H](OC(C)=O)[C@]5(CC)C=CCN6CC[C@]43[C@@H]65)C2)C1 [Vincristine] | 0.002 | 0.002 | 5 | two to three orders of magnitude larger | 5000 | 0.004 | –
